Data taken from patent EP1090023B1 (GLAXO GROUP LIMITED, priority 1998, dated 1999).

Tests used:
Assay type in all cases: cell-based
[1] = molecular target: adenosine 2a (Homo sapiens, UniProt P29274); experiment: Agonist activity against adenosine receptor subtypes, CHO cells with cAMP response element/SPAP reporter (basal cAMP); conditions: ratio to EC50 of NECA; transfected CHO cells; effect on basal cAMP via SPAP
Method: (§1) Compounds of the invention were tested for in vitro and in vivo biological activity in accordance with the following screens: • (1) Agonist activity against adenosine 2a, adenosine 1 and adenosine 3 receptor subtypes.
(§2) Agonist selectivity of compounds against other human adenosine receptors was determined using Chinese hamster ovary (CHO) cells transfected with the gene for the relevant human adenosine receptor following a method based on that of Castanon and Spevak, 1994 . The CHO cells were also transfected with cyclic AMP response elements promoting the gene for secreted placental alkaline phosphatase (SPAP) (Wood, 1995). The effect of test compounds was determined by their effects on basal levels of cAMP (A2a) or on forskolin-enhanced cAMP (A1 and A3) as reflected by changes in levels of SPAP. EC50 values for compounds were then determined as a ratio to that of the non-selective agonist N-ethyl carboxamide adenosine (NECA).

[2] = molecular target: T1, adenosine 3 (Homo sapiens, UniProt P0DMS8); experiment: Agonist activity against adenosine receptor subtypes, CHO cells with cAMP response element/SPAP reporter (forskolin-enhanced cAMP); conditions: ratio to EC50 of NECA; transfected CHO cells; effect on forskolin-enhanced cAMP via SPAP
T1 sequence (P0DMS8 1-318): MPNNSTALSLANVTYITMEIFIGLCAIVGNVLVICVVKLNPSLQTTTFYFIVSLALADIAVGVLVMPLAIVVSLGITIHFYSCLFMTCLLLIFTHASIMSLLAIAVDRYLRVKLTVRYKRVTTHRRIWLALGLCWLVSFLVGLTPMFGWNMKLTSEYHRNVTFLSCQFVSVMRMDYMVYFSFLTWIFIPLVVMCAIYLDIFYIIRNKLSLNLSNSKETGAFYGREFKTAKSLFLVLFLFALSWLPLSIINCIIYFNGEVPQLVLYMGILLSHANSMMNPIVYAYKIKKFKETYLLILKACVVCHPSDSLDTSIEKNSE
Method: as §1, §2

[3] = molecular target: T2, adenosine 1 (Homo sapiens, UniProt P30542); experiment: as above; conditions: ratio to EC50 of NECA; transfected CHO cells; effect on forskolin-enhanced cAMP via SPAP
T2 sequence (P30542 1-326): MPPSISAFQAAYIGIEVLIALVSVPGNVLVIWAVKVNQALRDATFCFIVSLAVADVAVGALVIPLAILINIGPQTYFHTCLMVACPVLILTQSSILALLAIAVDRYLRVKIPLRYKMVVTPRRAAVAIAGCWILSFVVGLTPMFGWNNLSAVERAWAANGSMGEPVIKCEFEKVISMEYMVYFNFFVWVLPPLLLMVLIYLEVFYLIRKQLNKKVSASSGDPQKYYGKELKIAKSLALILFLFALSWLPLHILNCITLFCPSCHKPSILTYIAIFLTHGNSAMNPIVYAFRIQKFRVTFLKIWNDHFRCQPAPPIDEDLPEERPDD
Method: as §1, §2

Chain of adenosine 2a (P29274 whole entry): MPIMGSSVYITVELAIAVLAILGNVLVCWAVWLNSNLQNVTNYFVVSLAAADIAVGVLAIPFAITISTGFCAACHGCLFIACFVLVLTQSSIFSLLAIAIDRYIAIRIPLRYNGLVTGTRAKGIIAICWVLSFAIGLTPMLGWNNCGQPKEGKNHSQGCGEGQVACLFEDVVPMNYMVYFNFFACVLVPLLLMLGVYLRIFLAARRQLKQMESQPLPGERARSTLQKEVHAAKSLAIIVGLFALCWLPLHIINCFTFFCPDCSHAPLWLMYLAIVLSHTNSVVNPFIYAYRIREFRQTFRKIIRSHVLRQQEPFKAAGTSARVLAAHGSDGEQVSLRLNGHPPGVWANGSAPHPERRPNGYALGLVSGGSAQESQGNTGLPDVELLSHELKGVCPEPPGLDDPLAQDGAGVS

Row | Structure (SMILES) | A2a (EC50 values as a ratio of that of NECA) [1] | A3 (EC50 values as a ratio of that of NECA) [2] | A1 (EC50 values as a ratio of that of NECA) [3]
1 | CCc1nnc([C@H]2O[C@@H](n3cnc4c(NCC(c5ccccc5)c5ccccc5)nc(NCCN5CCCCC5)nc43)[C@H](O)[C@@H]2O)o1.O=CO [Example 22, (2R,3R,4S,5S)-2-[6-(2,2-Diphenyl-ethylamino)-2-(2-piperidin-1-yl-ethylamino)-purin-9-yl]-5-(5-ethyl-[1,3,4]oxadiazol-2-yl)-tetrahydro-furan-3,4-diol formate] | 12.28 | >180 | 101.96
2 | CCc1nnc([C@H]2O[C@@H](n3cnc4c(NCC(c5ccccc5)c5ccccc5)nc(NCCc5ccccn5)nc43)[C@H](O)[C@@H]2O)[nH]1.O=CO [Example 27, (2R,3R,4S,5R)-2-[6-(2,2-Diphenyl-ethylamino)-2-(2-pyridin-2-yl-ethylamino)-purin-9-yl]-5-(5-ethyl-4H-[1,2,4]triazol-3-yl)-tetrahydro-furan-3,4-diol formate] | 21.8 | >183 | 135.9
3 | CC(C)c1nnc([C@H]2O[C@@H](n3cnc4c(NCC(c5ccccc5)c5ccccc5)nc(N[C@H]5CC[C@H](N)CC5)nc43)[C@H](O)[C@@H]2O)[nH]1.O=CO [Example 10, (2R,3R,4S,5R)-2-[2-(trans-4-Amino-cyclohexylamino)-6-(2,2-diphenyl-ethylamino)-purin-9-yl]-5-(5-isopropyl-4H-[1,2,4]triazol-3-yl)-tetrahydro-furan-3,4-diol formate] | 16.85 | >326 | 1453.5
4 | CCc1cc([C@H]2O[C@@H](n3cnc4c(NC(CC)CC)nc(NCCN5CCCCC5)nc43)[C@H](O)[C@@H]2O)no1.O=CO.O=CO [Example 43, (2R,3R,4S,5R)-2-[6-(1-Ethyl-propylamino)-2-(2-piperidin-1-yl-ethylamino)-purin-9-yl]-5-(5-ethylisoxazol-3-yl)tetrahydrofuran-3,4-diol diformate] | 3.25 | >1124 | 21.82
5 | CCc1nnc([C@H]2O[C@@H](n3cnc4c(NCC(c5ccccc5)c5ccccc5)nc(N[C@H]5CC[C@H](N)CC5)nc43)[C@H](O)[C@@H]2O)o1.O=CO [Example 25, (2R,3R,4S,5S)-2-[2-(trans-4-Amino-cyclohexylamino)-6-(2,2-diphenyl-ethylamino)-purin-9-yl]-5-(5-ethyl-[1,3,4]oxadiazol-2-yl)-tetrahydro-furan-3,4-diol formate] | 4.81 | >136 | 398.28

More lines, now with the values ahead:

Row | A2a (EC50 values as a ratio of that of NECA) [1] | A3 (EC50 values as a ratio of that of NECA) [2] | A1 (EC50 values as a ratio of that of NECA) [3] | Structure (SMILES)
6 | 3.25 | >147 | >6032 | CCc1nnc([C@H]2O[C@@H](n3cnc4c(NCC(c5ccccc5)c5ccccc5)nc(N[C@@H]5CCNC5)nc43)[C@H](O)[C@@H]2O)[nH]1.O=CO [Example 9, (2R,3R,4S,5R)-2-[6-(2,2-Diphenyl-ethylamino)-2-(pyrrolidin-3R-ylamino)-purin-9-yl]-5-(5-ethyl-4H-[1,2,4]triazol-3-yl)-tetrahydro-furan-3,4-diol formate]
7 | 5.45 | >518 | 538 | Cc1cnc([C@H]2O[C@@H](n3cnc4c(NCCC5CCCCC5)nc(N[C@H](CO)Cc5ccccc5)nc43)[C@H](O)[C@@H]2O)o1.O=CO [Example 17, (2R,3R,4S,5S)-2-[6-(2-Cyclohexyl-ethylamino)-2-(1S-hydroxymethyl-2-phenyl-ethylamino)-purin-9-yl]-5-(5-methyl-oxazol-2-yl)-tetrahydro-furan-3,4-diol formate]
8 | 4.77 | >194 | >8841 | CCc1nc([C@H]2O[C@@H](n3cnc4c(NCC(c5ccccc5)c5ccccc5)nc(N[C@H]5CC[C@H](N)CC5)nc43)[C@H](O)[C@@H]2O)no1.O=CO.O=CO (relative stereo) [Example 12, (2R,3R,4S,5R)-2-[2-(trans-4-Amino-cyclohexylamino)-6-(2,2-diphenyl-ethylamino)-purin-9-yl]-5-(5-ethyl-[1,2,4]oxadiazol-3-yl)-tetrahydro-furan-3,4-diol diformate]
9 | 41.04 | >87 | 306.9 | CCC(CC)Nc1nc(N[C@H](CO)C(C)C)nc2c1ncn2[C@@H]1O[C@H](c2nnc(C3CC3)o2)[C@@H](O)[C@H]1O.O=CO [Example 42, (2R,3R,4S,5S)-2-[6-(1-Ethyl-propylamino)-2-(1S-hydroxymethyl-2-methyl-propylamino)-purin-9-yl]-5-(5-cyclopropyl-[1,3,4]oxadiazol-2-yl)-tetrahydro-furan-3,4-diol formate]
10 | 5.75 | >257 | 4514.96 | CCc1nc([C@H]2O[C@@H](n3cnc4c(NCC(c5ccccc5)c5ccccc5)nc(N[C@H](CO)Cc5ccccc5)nc43)[C@H](O)[C@@H]2O)no1.O=CO [Example 16, (2R,3R,4S,5R)-2-[6-(2,2-Diphenyl-ethylamino)-2-(1S-hydroxymethyl-2-phenyl-ethylamino)-purin-9-yl]-5-(5-ethyl-[1,2,4]oxadiazol-3-yl)-tetrahydro-furan-3,4-diol formate]
11 | 18.9 | >223 | 5515 | Cc1cnc([C@H]2O[C@@H](n3cnc4c(NCC(c5ccccc5)c5ccccc5)nc(N[C@@H]5CCNC5)nc43)[C@H](O)[C@@H]2O)o1.O=CO.O=CO [Example 18, (2R,3R,4S,5S)-2-[6-(2,2-Diphenyl-ethlyamino)-2-(pyrrolidin-3R-ylamino)-purin-9-yl]-5-(5-methyl-oxazol-2-yl)-tetrahydro-furan-3,4-diol diformate]
